Laboratory results reported in US10072003B2, “Tetrahydronaphthyridine derivatives as mGluR2-negative allosteric modulators, compositions, and their use” (Merck Sharp & Dohme Corp., priority 2014, dated 2018).

Target: recombinant human mGluR2 (Homo sapiens (Human), UniProt Q14416)
Test: FLIPR Ca2+ mobilization antagonist assay in CHO dhfr- cells expressing human mGluR2 and Gα16
Type: cell-based
Conditions: antagonist response after addition of 2,500 nM glutamate, Fluo-4 AM, FLIPR384
Protocol: Antagonist constants are determined as follows. The compounds of the invention were tested in a fluorescence laser imaging plate reader based assay. This assay is a common functional assay to monitor Ca2+ mobilization in whole cells expressing recombinant receptor coupled with a promiscuous G-protein. CHO dhfr-cells stably expressing recombinant human mGluR2 and Gα16 loaded with Fluo-4 AM (Invitrogen, Carlsbad Calif.) were treated with various concentrations of antagonists of compounds and the Ca2+ response was monitored on a FLIPR384 (Molecular Devices, Sunnydale Calif.) for agonist activity. Then 2,500 nM glutamate was added and the antagonist response was monitored. The maximum calcium response at each concentration of compound for agonist or antagonist were plotted as dose responses and the curves were fitted with a four parameter logistic equation giving IC50 and Hill coefficient using the iterative non linear curve fitting software ADA (Merck & Co). Data in the following table represent activities in the antagonist assay.

Chain of recombinant human mGluR2 (Q14416 19-872): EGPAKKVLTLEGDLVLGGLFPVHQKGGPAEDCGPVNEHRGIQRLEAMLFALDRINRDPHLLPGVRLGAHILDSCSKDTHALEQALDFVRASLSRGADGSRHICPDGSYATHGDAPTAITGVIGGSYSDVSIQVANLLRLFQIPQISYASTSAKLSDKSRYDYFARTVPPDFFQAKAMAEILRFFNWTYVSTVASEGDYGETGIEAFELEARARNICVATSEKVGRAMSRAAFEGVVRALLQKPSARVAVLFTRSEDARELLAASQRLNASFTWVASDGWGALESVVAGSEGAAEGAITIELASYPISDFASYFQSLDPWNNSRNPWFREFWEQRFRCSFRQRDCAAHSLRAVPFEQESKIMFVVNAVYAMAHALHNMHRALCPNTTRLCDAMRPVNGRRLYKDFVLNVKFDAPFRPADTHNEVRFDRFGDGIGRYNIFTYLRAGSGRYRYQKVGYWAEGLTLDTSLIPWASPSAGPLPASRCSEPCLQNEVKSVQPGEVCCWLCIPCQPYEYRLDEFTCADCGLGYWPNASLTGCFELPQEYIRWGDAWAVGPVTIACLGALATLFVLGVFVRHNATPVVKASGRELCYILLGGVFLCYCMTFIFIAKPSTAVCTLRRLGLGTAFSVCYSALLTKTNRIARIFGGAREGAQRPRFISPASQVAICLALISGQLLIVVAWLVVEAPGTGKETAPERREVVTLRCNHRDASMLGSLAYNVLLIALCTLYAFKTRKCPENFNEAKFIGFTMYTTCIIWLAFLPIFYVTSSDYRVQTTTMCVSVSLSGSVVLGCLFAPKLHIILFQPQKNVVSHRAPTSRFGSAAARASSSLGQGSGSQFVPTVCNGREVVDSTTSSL

CC1(C)CC(CN2CCc3c(-c4ccc(F)cc4F)cc(C(N)=O)nc3C2(C)C)CCO1 (racemic) [Example 1-23A, (R) and (S)-4-(2,4-difluorophenyl)-7-((2,2-dimethyltetrahydro-2H-pyran-4-yl)methyl)-8,8-dimethyl-5,6,7,8-tetrahydro-1,7-naphthyridine-2-carboxamide]
IC50: 14.7 nM

CC1(C)CC(CN2CCc3c(-c4ccc(F)cc4F)cc(C(N)=O)nc3C2(C)C)CCO1 (racemic) [Example 1-23B, (R) and (S)-4-(2,4-difluorophenyl)-7-((2,2-dimethyltetrahydro-2H-pyran-4-yl)methyl)-8,8-dimethyl-5,6,7,8-tetrahydro-1,7-naphthyridine-2-carboxamide]
IC50: 28.5 nM

NC(=O)c1cc(-c2ccc(F)cc2)c2c(n1)CN(C(c1cccnc1)C(F)(F)F)CC2 (racemic) [Example 3-1A, (S) and (R)-4-(4-fluorophenyl)-7-(2,2,2-trifluoro-1-(pyridin-3-yl)ethyl)-5,6,7,8-tetrahydro-1,7-naphthyridine-2-carboxamide]
IC50: 21.2 nM

NC(=O)c1cc(-c2ccc(F)cc2)c2c(n1)CN(C(c1cccnc1)C(F)(F)F)CC2 (racemic) [Example 3-1B, (S) and (R)-4-(4-fluorophenyl)-7-(2,2,2-trifluoro-1-(pyridin-3-yl)ethyl)-5,6,7,8-tetrahydro-1,7-naphthyridine-2-carboxamide]
IC50: 22.3 nM

COc1cc(C(N2CCc3c(-c4cnn(C)c4)cc(C(N)=O)nc3C2)C(F)(F)F)ccn1 (racemic) [Example 3-2A, (S) and (R)-4-(1-methyl-1H-pyrazol-4-yl)-7-(2,2,2-trifluoro-1-(2-methoxypyridin-4-yl)ethyl)-5,6,7,8-tetrahydro-1,7-naphthyridine-2-carboxamide]
IC50: 9.6 nM

COc1cc(C(N2CCc3c(-c4cnn(C)c4)cc(C(N)=O)nc3C2)C(F)(F)F)ccn1 (racemic) [Example 3-2B, (S) and (R)-4-(1-methyl-1H-pyrazol-4-yl)-7-(2,2,2-trifluoro-1-(2-methoxypyridin-4-yl)ethyl)-5,6,7,8-tetrahydro-1,7-naphthyridine-2-carboxamide]
IC50: 11.4 nM

COc1cc(C(N2CCc3c(C4=CCC(C)CC4)cc(C(N)=O)nc3C2)C(F)(F)F)ccn1 (racemic) [Example 4-3A, 4-((S) and (R)-4-methylcyclohex-1-en-1-yl)-7-((S) and (R)-2,2,2-trifluoro-1-(2-methoxypyridin-4-yl)ethyl)-5,6,7,8-tetrahydro-1,7-naphthyridine-2-carboxamide]
IC50: 51.2 nM

COc1cc(C(N2CCc3c(C4=CCC(C)CC4)cc(C(N)=O)nc3C2)C(F)(F)F)ccn1 (racemic) [Example 4-3B, 4-((S) and (R)-4-methylcyclohex-1-en-1-yl)-7-((S) and (R)-2,2,2-trifluoro-1-(2-methoxypyridin-4-yl)ethyl)-5,6,7,8-tetrahydro-1,7-naphthyridine-2-carboxamide]
IC50: 86.6 nM

NC(=O)c1cc(-c2ccc(F)cc2F)c2c(n1)CN(CC(O)c1ccccc1)CC2 (racemic) [Example 8-1A, (S) and (R)-4-(2,4-difluorophenyl)-7-(2-hydroxy-2-phenylethyl)-5,6,7,8-tetrahydro-1,7-naphthyridine-2-carboxamide]
IC50: 18.5 nM

NC(=O)c1cc(-c2ccc(F)cc2F)c2c(n1)CN(CC(O)c1ccccc1)CC2 (racemic) [Example 8-1B, (S) and (R)-4-(2,4-difluorophenyl)-7-(2-hydroxy-2-phenylethyl)-5,6,7,8-tetrahydro-1,7-naphthyridine-2-carboxamide]
IC50: 12.7 nM

NC(=O)c1cc(-c2ccc(F)cc2F)c2c(n1)CN(C(CO)c1ccccc1)CC2 (racemic) [Example 8-2A, (S) and (R)-4-(2,4-difluorophenyl)-7-(2-hydroxy-1-phenylethyl)-5,6,7,8-tetrahydro-1,7-naphthyridine-2-carboxamide]
IC50: 9.9 nM

NC(=O)c1cc(-c2ccc(F)cc2F)c2c(n1)CN(C(CO)c1ccccc1)CC2 (racemic) [Example 8-2B, (S) and (R)-4-(2,4-difluorophenyl)-7-(2-hydroxy-1-phenylethyl)-5,6,7,8-tetrahydro-1,7-naphthyridine-2-carboxamide]
IC50: 11.5 nM

CC1(C)CC(CN2CCc3c(-c4ccc(Cl)cc4F)cc(C(N)=O)nc3C2)CCO1 (single isomer, unassigned) [Example 1-5A, (R) or (S)-4-(4-chloro-2-fluorophenyl)-7-((2,2-dimethyltetrahydro-2H-pyran-4-yl)methyl)-5,6,7,8-tetrahydro-1,7-naphthyridine-2-carboxamide]
IC50: 5.6 nM

CC1(C)CC(CN2CCc3c(-c4ccc(Cl)cc4F)cc(C(N)=O)nc3C2)CCO1 (single isomer, unassigned) [Example 1-5B, (S) or (R)-4-(4-chloro-2-fluorophenyl)-7-((2,2-dimethyltetrahydro-2H-pyran-4-yl)methyl)-5,6,7,8-tetrahydro-1,7-naphthyridine-2-carboxamide]
IC50: 7.5 nM

CC1(C)CC(CN2CCc3c(-c4ccc(F)cc4F)cc(C(N)=O)nc3C2)CCO1 (single isomer, unassigned) [Example 1-11A, (R) or (S)-4-(2,4-difluorophenyl)-7-[(2,2-dimethyltetrahydro-2H-pyran-4-yl)methyl]-5,6,7,8-tetrahydro-1,7-naphthyridine-2-carboxamide]
IC50: 30.1 nM

CC1(C)CC(CN2CCc3c(-c4ccc(F)cc4F)cc(C(N)=O)nc3C2)CCO1 (single isomer, unassigned) [Example 1-11B, (S) or (R)-4-(2,4-difluorophenyl)-7-[(2,2-dimethyltetrahydro-2H-pyran-4-yl)methyl]-5,6,7,8-tetrahydro-1,7-naphthyridine-2-carboxamide]
IC50: 45.2 nM

NC(=O)c1cc(-c2ccc(F)cc2F)c2c(n1)CN(CC1CCOC(C3CCC3)C1)CC2 (single isomer, unassigned) [Example 1-14, 7-(((2S,4R) or (2R,4S)-2-cyclobutyltetrahydro-2H-pyran-4-yl)methyl)-4-(2,4-difluorophenyl)-5,6,7,8-tetrahydro-1,7-naphthyridine-2-carboxamide]
IC50: 40.3 nM

CC1c2nc(C(N)=O)cc(-c3ccc(F)cc3F)c2CCN1Cc1ccnn1C(C)C (single isomer, unassigned) [Example 1-15A, (S) or (R)-4-(2,4-difluorophenyl)-8-methyl-7-{[1-(1-methylethyl)-1H-pyrazol-5-yl]methyl}-5,6,7,8-tetrahydro-1,7-naphthyridine-2-carboxamide]
IC50: 5.8 nM

CC1c2nc(C(N)=O)cc(-c3ccc(F)cc3F)c2CCN1Cc1ccnn1C(C)C (single isomer, unassigned) [Example 1-15B, (R) or (S)-4-(2,4-difluorophenyl)-8-methyl-7-{[1-(1-methylethyl)-1H-pyrazol-5-yl]methyl}-5,6,7,8-tetrahydro-1,7-naphthyridine-2-carboxamide]
IC50: 5.3 nM

CC1c2nc(C(N)=O)cc(-c3ccc(F)cc3F)c2CCN1CC1CCOC(C)(C)C1 (single isomer, unassigned) [Example 1-18]
IC50: 12.3 nM

CC1c2nc(C(N)=O)cc(N3CCCCC3)c2CCN1Cc1ccnn1C(C)C (single isomer, unassigned) [Example 1-19, (S) or (R)-8-methyl-7-{[1-(1-methylethyl)-1H-pyrazol-5-yl]methyl}-4-piperidin-1-yl-5,6,7,8-tetrahydro-1,7-naphthyridine-2-carboxamide]
IC50: 13.2 nM

CC1(C)CCC(CN2CCc3c(-c4ccc(F)cc4F)cc(C(N)=O)nc3C2)CO1 (single isomer, unassigned) [Example 1-20, (S) or (R)-4-(2,4-difluorophenyl)-7-[(6,6-dimethyltetrahydro-2H-pyran-3-yl)methyl]-5,6,7,8-tetrahydro-1,7-naphthyridine-2-carboxamide]
IC50: 24.4 nM

CC1(C)CCC(CN2CCc3c(-c4ccc(Cl)cc4F)cc(C(N)=O)nc3C2)CO1 (single isomer, unassigned) [Example 1-21, (S) or (R)-4-(4-chloro-2-fluorophenyl)-7-[(6,6-dimethyltetrahydro-2H-pyran-3-yl)methyl]-5,6,7,8-tetrahydro-1,7-naphthyridine-2-carboxamide]
IC50: 9.3 nM

COC1CCN(c2cc(C(N)=O)nc3c2CCN(Cc2ccnn2C(C)C)C3C)CC1 (single isomer, unassigned) [Example 1-22, (S) or (R)-4-(4-methoxypiperidin-1-yl)-8-methyl-7-{[1-(1-methylethyl)-1H-pyrazol-5-yl]methyl}-5,6,7,8-tetrahydro-1,7-naphthyridine-2-carboxamide]
IC50: 50.6 nM

CC1CCCN(c2cc(C(N)=O)nc3c2CCN(Cc2ccnc(C(F)(F)F)c2)C3)C1 (single isomer, unassigned) [Example 5-5A, (S) or (R)-4-(3-methylpiperidin-1-yl)-7-((2-(trifluoromethyl)pyridin-4-yl)methyl)-5,6,7,8-tetrahydro-1,7-naphthyridine-2-carboxamide]
IC50: 18.4 nM

CC1CCCN(c2cc(C(N)=O)nc3c2CCN(Cc2ccnc(C(F)(F)F)c2)C3)C1 (single isomer, unassigned) [Example 5-5B, (R) or (S)-4-(3-methylpiperidin-1-yl)-7-((2-(trifluoromethyl)pyridin-4-yl)methyl)-5,6,7,8-tetrahydro-1,7-naphthyridine-2-carboxamide]
IC50: 12.9 nM

NC(=O)c1cc(N2CCCC(F)C2)c2c(n1)CN(Cc1ccnc(C(F)(F)F)c1)CC2 (single isomer, unassigned) [Example 5-6A, (S) or (R)-4-(3-fluoropiperidin-1-yl)-7-((2-(trifluoromethyl)pyridin-4-yl)methyl)-5,6,7,8-tetrahydro-1,7-naphthyridine-2-carboxamide]
IC50: 21.4 nM
